# According to PMC6963673, “Phenylboronic Acids Probing Molecular Recognition against Class A and Class C β-lactamases” (Antibiotics, 2019):
# Where two headings read alike, the source gives them in different places.
# Experiments:
# [1] = system: Pseudomonas aeruginosa overexpressing AmpC; experiment: Checkerboard microdilution assay and FICI, ceftazidime plus inhibitor; type: cell-based; conditions: for FICI Antibiotic + inhibitor: CAZ + inhibitor, synergy FICI ≤0.5, indifference >0.5 and ≤4, antagonism >4; for nature of interaction with antibiotic: Pseudomonas aeruginosa, in combination with CAZ; for MIC Antibiotic: antibiotic alone
# Description: To investigate the ability of our phenylboronic acid derivatives 2-5 to reach the periplasmic space, where SBLs are secreted and concentrated in Gram negative bacteria, and synergically protect β-lactam antibiotics hydrolysis by BLs, drug interactions model via the fractional inhibitory concentration index (FICI) was determined against clinical strains overexpressing BLs targets of our studies (Table 2).
# (§1) To assess the nature of the in vitro interactions between the compounds and antibiotics against selected clinical strains, the data obtained from the checkerboard assay were used to calculate the fractional inhibitory concentration index (FICI). Briefly, exponential cultures of the bacterial strains in Mueller Hinton broth were inoculated in the wells of microtiter plates containing different concentrations of the cited antibiotics, with and without phenylboronic acids, and incubated at 37 °C for 18 hours. The growth in each well was quantified spectrophotometrically at 595 nm by a microplate reader TECAN Infinite (Tecan Trading AG, Switzerland). The minimal inhibitory concentration (MIC) for each drug and combination of drugs was defined as the concentration of drug that reduced growth by 80% compared to that of organisms grown in the absence of drug. The fractional inhibitory concentration index (FICI) is the mathematical expression of the effect of the combination of antibacterial agents expressed in Equation (1):(1) ΣFIC=FICA+FICB=MICAB/MICA+MICBA/MICB in which MICA and MICB are the MICs of drugs A and B acting alone, and MICAB and MICBA are the MICs of drugs A and B in combination. Synergy is defined when the FICI is ≤0.5, antagonism when the FICI is > 4, and indifference when the FICI is >0.5 and ≤4.
# KPC-2 = target: T1, KPC-2 (Klebsiella pneumoniae, UniProt Q9F663); experiment: In vitro enzyme inhibition assay against KPC-2 (nitrocefin reporter substrate); type: biochemical; conditions: for drop in potency against KPC-2: meta substituent
# T1 construct: made in house
# Excerpt: (§2) Expression and purification of recombinant KPC-2 and GES-5 have been performed as already reported. For recombinant AmpC from Pseudomonas aeruginosa, the optimized full-length synthetic gene was purchased (GeneArt service under Life Technologie) and subcloned into pRham vector to have it in the full-length version. Protein was expressed according to standard protocol: P. aeruginosa AmpC-β-lactamase was obtained from a culture of E. coli BL21(DE3), carrying the plasmid vector pRham-AmpC. 1L of LB-medium with kanamycin 50 μg/mL, at 37 °C, 150 RPM for 24 hrs. Expression was induced by 0.2% w/v Rhamnose. After 5–6 hours the cell broth was centrifuged at 4500 RPM, 4 °C, for 20 min. The sample was loaded on a column packed with 25 mL of Affigel-10 (Biorad) functionalized with 3 MAPB (3-methylaminophenylboronic acid). The column was previously equilibrated with the loading buffer. The protein was eluted (flow rate, 1 mL/min) with 5 column-volumes of elution-buffer (0.5 M boric acid, 0.5 M NaCl, pH 7.0). β-lactamase activity was checked in each elution fraction using 200 μM CENTA [35]. Active fractions were pooled, concentrated by ultrafiltration using a Millipore Ultra-15 (Ultracel-10K; Millipore) and checked by SDS-Page. The protein pool final concentration (1 mg/mL) was assessed using Bradford and UV-Vis assays. Purified AmpC β-lactamase was stored at −80 °C [36].
# (§3) The half-maximal inhibitory concentration (IC50) of phenylboronic acid derivatives was determined as follows. Reactions were monitored using a Jasco V-730 spectrophotometer at […] wavelength. Boronic acids were dissolved in dimethyl sulfoxide (DMSO) to a concentration of 10 mM and stored at −20°C. Each compound was tested at concentrations ranging from 1 µM to 200 µM for inhibitory activity vs full-length KPC-2 enzyme, GES-5 and AmpC in 50 mM of PB + 50 mM KCl at pH 7.4 at 25°C with 0.01% v/v Triton X-100, to avoid compound aggregation and promiscuous inhibition in presence of nitrocefin as reported substrate. For tests against KPC-2, reporter substrate nitrocefin was used at 40 μM, (Km 36 μM) while for tests against GES-5 and AmpC reporter substrate nitrocefin was used at 200 μM (Km 208 μM and Km 200 respectively). All the experiments were performed in triplicate. Experimental error never exceeded 5%. The reaction was typically initiated by adding the enzyme to the reaction buffer last. The IC50 values were determined by measuring the rate of hydrolysis of a reporter substrate in the presence of five different inhibitor concentrations at λ 482 nm. The binding affinity ki was estimated, for each compound in the library, from the determined IC50 by Cheng–Prusoff equation as per competitive inhibition (Table 1).
# [2] = system: clinical isolates of Klebsiella pneumoniae expressing KPC-2; experiment: Checkerboard microdilution assay and FICI, meropenem plus inhibitor; type: cell-based; conditions: for FICI Antibiotic + inhibitor: MEM + inhibitor, synergy FICI ≤0.5, indifference >0.5 and ≤4, antagonism >4; for nature of interaction with antibiotic: Klebsiella pneumoniae strains, in combination with MEM
# Description: as §1
# AmpC [3] = target: T2, AmpC (Pseudomonas aeruginosa, UniProt P24735); experiment: In vitro enzyme inhibition assay against AmpC (nitrocefin reporter substrate); type: biochemical; conditions: for drop in potency against AmpC: ortho substitution
# T2 construct: subcloned into pRham vector to have it in the full-length version; made in house; host or cells: E. coli BL21(DE3), plasmid pRham-AmpC
# Excerpt: as §2, §3
# GES-5 = target: T3, GES-5 (Klebsiella pneumoniae, UniProt Q09HD0); experiment: In vitro enzyme inhibition assay against GES-5 (nitrocefin reporter substrate); type: biochemical
# T3 construct: made in house
# Excerpt: as §2, §3
# AmpC [4] = target: T2, AmpC; conditions: read-out: AmpC Ki; lead phenylboronic acid; cited from earlier work
# T3 sequence (Q09HD0 19-287): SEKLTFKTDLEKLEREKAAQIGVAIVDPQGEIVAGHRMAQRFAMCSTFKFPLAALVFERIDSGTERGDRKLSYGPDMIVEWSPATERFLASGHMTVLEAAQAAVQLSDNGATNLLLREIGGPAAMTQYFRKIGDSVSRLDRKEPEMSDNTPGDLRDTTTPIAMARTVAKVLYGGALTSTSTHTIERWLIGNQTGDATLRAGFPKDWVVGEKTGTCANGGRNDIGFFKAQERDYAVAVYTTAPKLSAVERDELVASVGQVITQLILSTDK
# T2 sequence (P24735 27-397): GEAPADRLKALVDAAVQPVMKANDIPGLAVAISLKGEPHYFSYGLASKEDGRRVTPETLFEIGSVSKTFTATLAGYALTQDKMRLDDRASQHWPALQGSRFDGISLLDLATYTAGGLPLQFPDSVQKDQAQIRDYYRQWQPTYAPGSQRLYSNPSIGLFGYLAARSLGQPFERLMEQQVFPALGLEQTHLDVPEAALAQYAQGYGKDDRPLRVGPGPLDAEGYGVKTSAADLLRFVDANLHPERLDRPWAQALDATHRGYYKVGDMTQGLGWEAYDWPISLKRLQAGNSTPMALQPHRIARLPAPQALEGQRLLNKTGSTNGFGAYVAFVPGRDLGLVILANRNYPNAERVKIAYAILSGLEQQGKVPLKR
# T1 sequence (Q9F663 25-293 limits assumed): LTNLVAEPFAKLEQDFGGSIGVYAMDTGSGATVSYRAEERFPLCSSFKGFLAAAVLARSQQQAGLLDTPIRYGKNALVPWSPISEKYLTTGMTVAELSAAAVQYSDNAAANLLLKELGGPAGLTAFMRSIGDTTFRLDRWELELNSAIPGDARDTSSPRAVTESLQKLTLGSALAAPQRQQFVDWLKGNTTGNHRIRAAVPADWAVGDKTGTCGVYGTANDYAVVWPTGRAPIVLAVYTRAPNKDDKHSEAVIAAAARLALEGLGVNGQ
Structure (SMILES),FICI Antibiotic + inhibitor ([1]; P aeruginosa 12),FICI Antibiotic + inhibitor ([1]; P aeruginosa 148),nature of interaction with antibiotic [1],Ki (KPC-2) [µM],drop in potency against KPC-2 (KPC-2),FICI Antibiotic + inhibitor ([2]; Klebsiella 53A8),FICI Antibiotic + inhibitor ([2]; Klebsiella 53A9),FICI Antibiotic + inhibitor ([2]; Klebsiella 99D8),Ki (AmpC [3]) [µM],Ki (GES-5) [µM],Ki (AmpC [4]) [µM],nature of interaction with antibiotic [2],drop in potency against AmpC (AmpC [3]),higher activity against GES-5 with respect to KPC-2 (GES-5; ratio of Ki KPC-2 to Ki GES-5) [fold],MIC Antibiotic ([1]; P aeruginosa 12) [µg/mL],MIC Antibiotic ([1]; P aeruginosa 148) [µg/mL]
O=C(O)CCc1cccc(B(O)O)c1 [Compound 5],0.3750,0.0936,synergism can be defined,53,up to 47 fold,2,1.5,2,5.3,69.4,,,,,,
"OB(O)c1ccccc1 [Compound 1, phenylboronic acid]",,,,,,,,,,,4.85,,,,,
"O=C(O)C=Cc1cccc(B(O)O)c1 [Compound 3, [3-(2-carboxyvinyl)phenyl] boronic acid]",0.5,0.375,synergism can be defined,31.2,up to 47 fold,2,1.5,2,1.45,24.6,,,,,,
O=C(O)CCc1ccccc1B(O)O [Compound 4],2,1.5,,1.13,,0.1875,0.2500,0.1250,76.1,1.83,,clear synergistic activity,up to 50 fold,,,
"O=C(O)C=Cc1ccccc1B(O)O [Compound 2, [2-(2-carboxyvinyl)-phenyl]boronic acid]",2,1,,2.43,,0.0117,0.0175,0.0156,41.7,0.11,,clear synergistic activity,up to 50 fold,23,,
"CC(C)(O/N=C(\C(=O)N[C@@H]1C(=O)N2C(C(=O)[O-])=C(C[n+]3ccccc3)CS[C@H]12)c1csc(N)n1)C(=O)O [CAZ, ceftazidime, reference compound]",,,,,,,,,,,,,,,32,128
